Data: the Kinase Knowledgebase extract (Sharma et al. 2016)

Legend:
PIK3CA (human) = PIK3CA (human) (UniProt P42336); assay: Inhibition of PIK3CA Kinase Activity
PIK3CD (Human) = PIK3CD (Human) (UniProt O00329); assay: Inhibition of PIK3CD Kinase Activity
PIK3CG (human) = PIK3CG (human) (UniProt P48736); assay: Inhibition of PIK3CG Kinase Activity
PIK3CB (Human) = PIK3CB (Human) (UniProt P42338); assay: Inhibition of PIK3CB Kinase Activity

Measured: IC50

PIK3CD (Human), sequence (O00329 whole entry, looked up): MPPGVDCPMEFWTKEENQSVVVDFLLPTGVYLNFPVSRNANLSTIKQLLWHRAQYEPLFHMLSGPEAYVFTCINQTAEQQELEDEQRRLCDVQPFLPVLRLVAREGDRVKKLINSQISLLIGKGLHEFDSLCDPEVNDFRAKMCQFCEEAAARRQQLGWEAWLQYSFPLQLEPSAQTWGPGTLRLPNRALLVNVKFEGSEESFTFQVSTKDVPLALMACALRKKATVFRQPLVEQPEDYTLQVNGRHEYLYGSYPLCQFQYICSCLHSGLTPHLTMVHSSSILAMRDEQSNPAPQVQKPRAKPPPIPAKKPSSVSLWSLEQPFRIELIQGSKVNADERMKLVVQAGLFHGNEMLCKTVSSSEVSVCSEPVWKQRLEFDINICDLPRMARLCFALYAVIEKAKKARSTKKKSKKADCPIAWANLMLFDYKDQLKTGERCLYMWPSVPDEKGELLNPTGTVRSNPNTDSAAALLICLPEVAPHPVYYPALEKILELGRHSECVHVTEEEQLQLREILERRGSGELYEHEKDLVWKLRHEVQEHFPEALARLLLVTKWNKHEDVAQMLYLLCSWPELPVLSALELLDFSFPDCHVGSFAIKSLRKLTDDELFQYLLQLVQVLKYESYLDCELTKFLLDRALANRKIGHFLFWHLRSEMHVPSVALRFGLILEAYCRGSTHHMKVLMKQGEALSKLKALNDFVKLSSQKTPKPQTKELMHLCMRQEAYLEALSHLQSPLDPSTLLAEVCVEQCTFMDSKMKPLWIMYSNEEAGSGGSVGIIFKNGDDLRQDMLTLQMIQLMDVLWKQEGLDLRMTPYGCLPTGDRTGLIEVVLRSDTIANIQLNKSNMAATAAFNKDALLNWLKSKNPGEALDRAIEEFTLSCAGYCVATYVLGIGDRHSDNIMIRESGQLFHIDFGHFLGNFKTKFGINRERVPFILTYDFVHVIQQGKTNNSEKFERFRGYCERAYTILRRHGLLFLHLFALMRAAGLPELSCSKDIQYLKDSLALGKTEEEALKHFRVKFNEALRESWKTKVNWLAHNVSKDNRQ
PIK3CA (human), sequence (P42336 whole entry, looked up): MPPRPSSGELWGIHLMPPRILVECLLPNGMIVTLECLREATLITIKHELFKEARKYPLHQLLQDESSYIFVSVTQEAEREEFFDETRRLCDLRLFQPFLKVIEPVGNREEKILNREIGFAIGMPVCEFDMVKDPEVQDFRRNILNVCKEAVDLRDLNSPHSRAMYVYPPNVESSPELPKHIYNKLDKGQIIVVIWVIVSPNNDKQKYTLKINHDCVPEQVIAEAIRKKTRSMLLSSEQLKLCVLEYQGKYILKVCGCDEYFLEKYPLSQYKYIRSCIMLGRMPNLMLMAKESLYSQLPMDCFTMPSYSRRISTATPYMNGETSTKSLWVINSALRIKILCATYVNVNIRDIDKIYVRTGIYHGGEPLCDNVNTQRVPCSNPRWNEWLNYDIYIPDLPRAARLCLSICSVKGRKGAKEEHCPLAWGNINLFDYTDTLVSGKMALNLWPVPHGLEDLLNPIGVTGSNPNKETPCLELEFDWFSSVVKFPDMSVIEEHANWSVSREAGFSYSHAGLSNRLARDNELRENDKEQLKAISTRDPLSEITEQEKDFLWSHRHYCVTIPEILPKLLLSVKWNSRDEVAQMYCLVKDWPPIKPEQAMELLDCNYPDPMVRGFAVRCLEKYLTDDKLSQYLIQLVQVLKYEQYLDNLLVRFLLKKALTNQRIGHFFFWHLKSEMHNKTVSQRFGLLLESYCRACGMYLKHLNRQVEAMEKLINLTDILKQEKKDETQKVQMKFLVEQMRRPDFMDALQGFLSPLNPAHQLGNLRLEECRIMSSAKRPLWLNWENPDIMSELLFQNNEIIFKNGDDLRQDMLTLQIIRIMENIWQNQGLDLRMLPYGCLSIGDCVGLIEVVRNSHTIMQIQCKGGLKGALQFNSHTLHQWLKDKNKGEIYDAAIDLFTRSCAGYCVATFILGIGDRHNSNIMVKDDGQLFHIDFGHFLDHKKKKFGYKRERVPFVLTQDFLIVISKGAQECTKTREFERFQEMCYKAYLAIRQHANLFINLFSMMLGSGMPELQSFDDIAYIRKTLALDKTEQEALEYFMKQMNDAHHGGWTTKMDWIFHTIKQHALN
PIK3CB (Human), sequence (P42338 whole entry, looked up): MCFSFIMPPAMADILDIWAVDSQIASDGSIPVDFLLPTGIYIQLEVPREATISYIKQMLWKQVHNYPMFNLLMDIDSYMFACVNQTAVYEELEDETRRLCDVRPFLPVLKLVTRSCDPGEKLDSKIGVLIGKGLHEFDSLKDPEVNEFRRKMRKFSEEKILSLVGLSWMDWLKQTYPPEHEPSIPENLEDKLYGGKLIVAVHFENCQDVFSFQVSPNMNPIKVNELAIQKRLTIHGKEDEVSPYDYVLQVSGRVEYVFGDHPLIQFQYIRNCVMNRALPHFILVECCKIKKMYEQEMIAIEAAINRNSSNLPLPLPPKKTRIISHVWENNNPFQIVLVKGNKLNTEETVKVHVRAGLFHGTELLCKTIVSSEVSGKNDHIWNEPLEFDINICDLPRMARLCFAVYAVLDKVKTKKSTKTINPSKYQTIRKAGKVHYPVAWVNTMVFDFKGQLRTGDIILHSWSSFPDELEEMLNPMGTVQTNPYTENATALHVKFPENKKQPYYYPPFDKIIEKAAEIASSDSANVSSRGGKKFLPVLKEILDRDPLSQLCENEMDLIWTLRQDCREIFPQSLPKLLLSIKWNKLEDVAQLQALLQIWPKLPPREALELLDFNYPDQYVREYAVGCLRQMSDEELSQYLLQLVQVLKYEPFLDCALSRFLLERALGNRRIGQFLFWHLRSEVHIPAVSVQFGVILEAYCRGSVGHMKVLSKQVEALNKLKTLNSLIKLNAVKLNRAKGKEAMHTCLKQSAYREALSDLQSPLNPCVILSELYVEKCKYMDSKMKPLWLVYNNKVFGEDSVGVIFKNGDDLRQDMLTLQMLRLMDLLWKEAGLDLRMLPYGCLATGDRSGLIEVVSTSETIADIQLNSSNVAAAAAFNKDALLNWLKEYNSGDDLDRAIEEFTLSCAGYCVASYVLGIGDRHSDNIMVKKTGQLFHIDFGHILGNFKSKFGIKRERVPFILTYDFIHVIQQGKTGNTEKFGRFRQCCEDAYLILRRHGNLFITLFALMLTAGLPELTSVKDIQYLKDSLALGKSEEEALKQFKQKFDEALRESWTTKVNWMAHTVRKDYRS
PIK3CG (human), sequence (P48736 whole entry, looked up): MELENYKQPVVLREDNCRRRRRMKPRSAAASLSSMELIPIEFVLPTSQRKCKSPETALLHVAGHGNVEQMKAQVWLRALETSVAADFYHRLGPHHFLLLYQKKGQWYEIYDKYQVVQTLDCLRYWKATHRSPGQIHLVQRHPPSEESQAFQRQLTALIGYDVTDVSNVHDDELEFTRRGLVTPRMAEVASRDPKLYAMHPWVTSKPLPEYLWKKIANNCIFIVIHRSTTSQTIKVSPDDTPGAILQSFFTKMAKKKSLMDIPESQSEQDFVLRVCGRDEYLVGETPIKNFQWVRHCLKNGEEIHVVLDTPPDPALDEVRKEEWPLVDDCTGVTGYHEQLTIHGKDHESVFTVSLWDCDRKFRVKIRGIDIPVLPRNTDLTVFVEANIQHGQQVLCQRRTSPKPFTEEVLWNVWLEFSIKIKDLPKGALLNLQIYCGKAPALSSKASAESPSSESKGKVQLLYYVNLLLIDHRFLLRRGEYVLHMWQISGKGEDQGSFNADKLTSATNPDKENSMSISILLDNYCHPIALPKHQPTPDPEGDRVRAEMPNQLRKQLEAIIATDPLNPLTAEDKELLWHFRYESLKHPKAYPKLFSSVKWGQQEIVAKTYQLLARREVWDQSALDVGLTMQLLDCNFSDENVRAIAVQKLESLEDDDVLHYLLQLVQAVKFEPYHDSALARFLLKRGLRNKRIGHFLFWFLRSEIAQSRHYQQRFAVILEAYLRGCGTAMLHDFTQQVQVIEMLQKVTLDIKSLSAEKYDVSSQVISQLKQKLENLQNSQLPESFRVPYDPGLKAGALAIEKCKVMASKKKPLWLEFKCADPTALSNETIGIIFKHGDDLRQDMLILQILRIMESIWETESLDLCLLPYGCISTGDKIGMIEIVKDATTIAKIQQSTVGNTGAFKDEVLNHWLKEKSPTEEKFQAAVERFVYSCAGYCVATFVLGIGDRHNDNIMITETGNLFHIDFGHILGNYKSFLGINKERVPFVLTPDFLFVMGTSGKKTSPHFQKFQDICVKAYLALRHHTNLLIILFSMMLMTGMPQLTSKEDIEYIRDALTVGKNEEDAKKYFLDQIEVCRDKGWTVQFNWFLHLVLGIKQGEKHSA

CC1(C)CC(=NO)c2sc(N3CCOCC3)nc2C1
≤ 50 µM: PIK3CA (human) | PIK3CD (Human) | PIK3CG (human) | PIK3CB (Human)

O=C1CC2(CCCC2)Cc2nc(N3CCOCC3)sc21
≤ 50 µM: PIK3CA (human) | PIK3CD (Human) | PIK3CG (human) | PIK3CB (Human)

CC1(C)CC(=O)c2sc(N3CCOc4ccccc43)nc2C1
≤ 50 µM: PIK3CA (human) | PIK3CD (Human) | PIK3CG (human) | PIK3CB (Human)

O=C1CC(c2ccccc2)Cc2nc(N3CCOCC3)sc21 (stereo unspecified)
≤ 50 µM: PIK3CA (human) | PIK3CD (Human) | PIK3CG (human) | PIK3CB (Human)

COc1cccc(-c2cccc(C[C@H]3COCCN3c3nc4c(s3)C(=O)CC(C)(C)C4)c2)c1
≤ 50 µM: PIK3CA (human) | PIK3CD (Human) | PIK3CG (human) | PIK3CB (Human)

CC1(C)CC(=O)c2sc(N3CCOC[C@@H]3Cc3cccc(-c4cncnc4)c3)nc2C1
≤ 50 µM: PIK3CA (human) | PIK3CD (Human) | PIK3CG (human) | PIK3CB (Human)

CC1(C)CC(=O)c2sc(N3CCOCC3Cc3cccc(Br)n3)nc2C1 (stereo unspecified)
≤ 50 µM: PIK3CA (human) | PIK3CD (Human) | PIK3CG (human) | PIK3CB (Human)

Cn1cc(CC2COCCN2c2nc3c(s2)C(=O)CC(C)(C)C3)c2ccccc21 (stereo unspecified)
≤ 50 µM: PIK3CA (human) | PIK3CD (Human) | PIK3CG (human) | PIK3CB (Human)

Cc1ccc2[nH]cc(CC3COCCN3c3nc4c(s3)C(=O)CC(C)(C)C4)c2c1 (stereo unspecified)
≤ 50 µM: PIK3CA (human) | PIK3CD (Human) | PIK3CG (human) | PIK3CB (Human)

CC1(C)CC(=O)c2sc(N3CCOC[C@@H]3Cc3cccc(-c4cccc(F)c4)c3)nc2C1
≤ 50 µM: PIK3CA (human) | PIK3CD (Human) | PIK3CG (human) | PIK3CB (Human)

CC1(C)CC(=O)c2sc(N3CCOC[C@@H]3Cc3cccc(Br)c3)nc2C1
≤ 50 µM: PIK3CA (human) | PIK3CD (Human) | PIK3CG (human) | PIK3CB (Human)

CC1(C)CC(=O)c2sc(N3CCOCC3Cc3cccc4ccccc34)nc2C1 (stereo unspecified)
≤ 50 µM: PIK3CA (human) | PIK3CD (Human) | PIK3CG (human) | PIK3CB (Human)

CC1(C)CCc2nc(N3CCOCC3)sc2C(=O)N1
≤ 50 µM: PIK3CA (human) | PIK3CD (Human) | PIK3CG (human) | PIK3CB (Human)

COc1ccc(-c2cccc(C[C@H]3COCCN3c3nc4c(s3)C(=O)CC(C)(C)C4)c2)cc1
≤ 50 µM: PIK3CA (human) | PIK3CD (Human) | PIK3CG (human) | PIK3CB (Human)

CC1(C)CC(=O)c2sc(N3CCOC[C@@H]3Cc3cccc(-c4cc(Cl)ccc4Cl)c3)nc2C1
≤ 50 µM: PIK3CA (human) | PIK3CD (Human) | PIK3CG (human) | PIK3CB (Human)

CC1(C)CC(=O)c2sc(N3CCOC[C@@H]3Cc3cccc(-c4ccc(C#N)cc4)c3)nc2C1
≤ 50 µM: PIK3CA (human) | PIK3CD (Human) | PIK3CG (human) | PIK3CB (Human)

Cc1ccccc1-c1cccc(C[C@H]2COCCN2c2nc3c(s2)C(=O)CC(C)(C)C3)c1
≤ 50 µM: PIK3CA (human) | PIK3CD (Human) | PIK3CG (human) | PIK3CB (Human)

Cn1cc(-c2cccc(C[C@H]3COCCN3c3nc4c(s3)C(=O)CC(C)(C)C4)c2)cn1
≤ 50 µM: PIK3CA (human) | PIK3CD (Human) | PIK3CG (human) | PIK3CB (Human)

CC1(C)CC(=O)c2sc(N3CCOC(c4ccccc4)C3)nc2C1 (stereo unspecified)
≤ 50 µM: PIK3CA (human) | PIK3CD (Human) | PIK3CG (human) | PIK3CB (Human)

Cc1ccc(C)c(-c2cccc(C[C@H]3COCCN3c3nc4c(s3)C(=O)CC(C)(C)C4)c2)c1
≤ 50 µM: PIK3CA (human) | PIK3CD (Human) | PIK3CG (human) | PIK3CB (Human)

CC1(C)CC(=O)c2sc(N3CCOC[C@@H]3CC#Cc3ccccc3)nc2C1
≤ 50 µM: PIK3CA (human) | PIK3CD (Human) | PIK3CG (human) | PIK3CB (Human)

CC1CCc2nc(N3CCOCC3)sc2C(=O)N1 (stereo unspecified)
≤ 50 µM: PIK3CA (human) | PIK3CD (Human) | PIK3CG (human) | PIK3CB (Human)

CC1(C)CNC(=O)c2sc(N3CCOC[C@@H]3Cc3c[nH]c4ccc(O)cc34)nc2C1
≤ 50 µM: PIK3CA (human) | PIK3CD (Human) | PIK3CG (human) | PIK3CB (Human)

CC1(C)CC(=O)c2sc(N3CCOC[C@@H]3Cc3cccc(-c4cccc(C(F)(F)F)c4)c3)nc2C1
≤ 50 µM: PIK3CA (human) | PIK3CD (Human) | PIK3CG (human) | PIK3CB (Human)

CC1(C)CC(=O)c2sc(N3CCOC[C@@H]3Cc3cccc(-c4c(F)cccc4F)c3)nc2C1
≤ 50 µM: PIK3CA (human) | PIK3CD (Human) | PIK3CG (human) | PIK3CB (Human)

CC1(C)CC(=O)c2sc(N3CCOCC3Cn3ccc4ccccc43)nc2C1 (stereo unspecified)
≤ 50 µM: PIK3CA (human) | PIK3CD (Human) | PIK3CG (human) | PIK3CB (Human)

CC1(C)CC(=O)c2sc(N3CCOCC3CNc3ccccc3)nc2C1 (stereo unspecified)
≤ 50 µM: PIK3CA (human) | PIK3CD (Human) | PIK3CG (human) | PIK3CB (Human)

CC1(C)CC(=O)c2sc(N3CCOCC3Cc3ccc(Br)cc3)nc2C1 (stereo unspecified)
≤ 50 µM: PIK3CA (human) | PIK3CD (Human) | PIK3CG (human) | PIK3CB (Human)

CC1(C)CC(=O)c2sc(N3CCOCC3CNS(=O)(=O)c3ccccc3)nc2C1 (stereo unspecified)
≤ 50 µM: PIK3CA (human) | PIK3CD (Human) | PIK3CG (human) | PIK3CB (Human)

CC1(C)CC(=O)c2sc(N3CCOC[C@@H]3Cc3cccc(-c4cccc(CO)c4)c3)nc2C1
≤ 50 µM: PIK3CA (human) | PIK3CD (Human) | PIK3CG (human) | PIK3CB (Human)

CC1(C)CC(=O)c2sc(N3CCOC[C@@H]3Cc3cccc(-c4ccc(F)cc4)c3)nc2C1
≤ 50 µM: PIK3CA (human) | PIK3CD (Human) | PIK3CG (human) | PIK3CB (Human)

CC1(C)CC(=O)c2sc(N3CCOC[C@@H]3Cc3cccc(-c4cccc(OC(F)(F)F)c4)c3)nc2C1
≤ 50 µM: PIK3CA (human) | PIK3CD (Human) | PIK3CG (human) | PIK3CB (Human)

CC1(C)CC(=O)c2sc(N3CCO[C@@H]4Cc5ccccc5[C@@H]43)nc2C1
≤ 50 µM: PIK3CA (human) | PIK3CD (Human) | PIK3CG (human) | PIK3CB (Human)

CC1(C)CCc2nc(N3CCOCC3)sc2C1=NO
≤ 50 µM: PIK3CA (human) | PIK3CD (Human) | PIK3CG (human) | PIK3CB (Human)

CC1(C)CCc2nc(N3CCOCC3)sc2C1=O
≤ 50 µM: PIK3CA (human) | PIK3CD (Human) | PIK3CG (human) | PIK3CB (Human)

CC1(C)CC(=O)c2sc(N3CCOCC3CNc3cccnc3)nc2C1 (stereo unspecified)
≤ 50 µM: PIK3CA (human) | PIK3CD (Human) | PIK3CG (human) | PIK3CB (Human)

CC1CCc2nc(N3CCOCC3)sc2C1=NO (stereo unspecified)
≤ 50 µM: PIK3CA (human) | PIK3CD (Human) | PIK3CG (human) | PIK3CB (Human)

CC1(C)CC(=O)c2sc(N3CCOC[C@@H]3Cc3cccc(-c4ccccc4)c3)nc2C1
≤ 50 µM: PIK3CA (human) | PIK3CD (Human) | PIK3CG (human) | PIK3CB (Human)

CC1(C)CC(=O)c2sc(N3CCOC[C@@H]3Cc3cccc(-c4ccncc4)c3)nc2C1
≤ 50 µM: PIK3CA (human) | PIK3CD (Human) | PIK3CG (human) | PIK3CB (Human)

O=C1CC(c2ccc(Cl)cc2)Cc2nc(N3CCOCC3)sc21 (stereo unspecified)
≤ 50 µM: PIK3CA (human) | PIK3CD (Human) | PIK3CG (human) | PIK3CB (Human)

O=C1CC(c2ccco2)Cc2nc(N3CCOCC3)sc21 (stereo unspecified)
≤ 50 µM: PIK3CA (human) | PIK3CD (Human) | PIK3CG (human) | PIK3CB (Human)

CC1CCc2nc(N3CCOCC3)sc2C1=O (stereo unspecified)
≤ 50 µM: PIK3CA (human) | PIK3CD (Human) | PIK3CG (human) | PIK3CB (Human)

Cc1cc(-c2cccc(C[C@H]3COCCN3c3nc4c(s3)C(=O)CC(C)(C)C4)c2)ccc1F
≤ 50 µM: PIK3CA (human) | PIK3CD (Human) | PIK3CG (human) | PIK3CB (Human)

CC(=O)c1ccc(-c2cccc(C[C@H]3COCCN3c3nc4c(s3)C(=O)CC(C)(C)C4)c2)s1
≤ 50 µM: PIK3CA (human) | PIK3CD (Human) | PIK3CG (human) | PIK3CB (Human)
